The source of these data is article PMC8603350, “A Remote Secondary Binding Pocket Promotes Heteromultivalent Targeting of DC-SIGN” (Journal of the American Chemical Society, 2021).

One data set has as its system DC-SIGN+ Raji cells. The experiment in a line: Liposome binding assay, flow cytometry. The format is cell-based. How it is done: (§1) If not stated otherwise, all media and supplements for cell culture experiments were purchased from Thermo Fisher Scientific. Raji, THP-1 and U937 cell lines (ATCC) were grown in complete growth medium containing RPMI1640 medium, 10% FCS, 100 U mL-1 Penicillin-Streptomycin and GlutaMax at 37°C and 5% CO2. Cells were monitored with a light microscope (IT40 5PH, VWR) and subcultured every 2 -3 days to maintain cell densities ranging from of 0.5 - 3 x 10^6 cells per mL.
(§2) CLR-expressing cell lines were generated as described before.4,27 Briefly, DC-SIGN, Langerin, murine Langerin and murine Dectin-1 cDNAs (Sinobiologicals) were cloned into a lentiviral BIC-PGK-Zeo-T2a-mAmetrine:EF1A construct by Gibson assembly (NEB) according to the manufacturer’s protocol. HEK293 cells were transfected with the lentiviral vector together with third-generation packaging vectors and viral particles were then used for transduction of Raji cells. In analogy, DC-SIGN and Langerin-expressing THP-1 and U937 cell lines were generated by lentiviral transduction.
(§3) Liposome binding assay – flow cytometry
(§4) Liposome binding to CLR-expressing cells was assayed as previously described.27 Briefly, 0.05 x 10^6 cells were plated in transparent conical-bottom 96 well microtiter plates (Nunc) in a volume of 100 µL medium. Plates were centrifuged at 500 x g for 3 minutes, supernatant was aspirated, and cells were resuspended in 100 µL medium, containing 16 µM liposomes. In control experiments, cells were incubated with medium containing 10 mM EDTA or 50 µg mL-1 mannan for 15 min at 4 °C, prior to liposome application. After 1 h incubation at 4 °C in the dark, cells were centrifuged at 500 x g for 3 min and the supernatant was discarded. Cells wer e resuspended in 200 µL ice-cold medium and analyzed by detecting the co-formulated Alexa 647 dye via flow cytometry with a 654 nm laser and a 670/14 nm filter (Attune Nxt, life technologies).
Flow cytometry data was processed using FlowJo (BD Bioscience). Mean fluorescence intensity (MFI) was further analyzed and plotted using GraphPad Prism (GraphPad […]
To monitor allosteric activation of DC-SIGN by glycomimetic 48, the described protocol was adjusted as follows. DC-SIGN+ Raji cells were plated in transparent conical-bottom 96 well microtiter plates (Nunc) in a volume of 100 µL medium. Plates were centrifuged at 500 x g for 3 minutes, supernatant was aspirated, and cell were resuspended in 25 µL medium supplemented with varying concentrations of monovalent carbohydrates or 0.5 mM 48. Homomultivalent liposomes carrying either natural carbohydrates or 48 were added at a final concentration of 16 µM. Liposome binding was subsequently quantified by measuring Alexa 647 fluorescence in flow cytometry experiments. Statistical significance by means of a student’s t-test was assessed based on averaged normalized MFIs from four biological replicates each conducted as technical duplicates. A p-value < 0.05 was set as significance cut-off.
A general note: Flow cytometry measures light scatter and fluorescence of single cells or particles in a stream.

In data set [1] the target is T1, Langerin ECD (Homo sapiens, UniProt Q9UJ71).
T1 construct: the trimeric Langerin extracellular domain (ECD) was; made in house; host or cells: E. coli BL21* (DE3)
Put plainly: 19F NMR reporter displacement assay (RDA), KI determination by titration. The format is binding. Particulars: for Ki: competitive titration, 0.1 mM reporter ligand 49, 10% DMSO. The method, then:
(§5) via SDS PAGE. The protein solution was aliquoted, snap frozen in liquid N2 and stored at -80°C until further usage.
(§6) NMR binding experiments – Langerin
(§7) General remarks. 19F R2-filtered NMR experiments were conducted on a PremiumCompact 600 MHz spectrometer (Agilent). Spectra were processed in MestreNova (Mestrelab Research) and data analysis was performed with OriginPro (OriginLab) . Experiments with the Langerin ECD were perf ormed at a receptor concentration of 50 μM in 25 mM Tris with 10% D 2O, 150 mM NaCl and 5 mM CaCl 2 […]
(§8) at pH 7.8 and 25°C. […]
CaCl2 at pH 7.0 and 25°C. TFA served as an internal reference at a concentration of 50 μM. Apparent transverse relaxation rates R 2,obs for the reporter ligand were determined using the CPMG pulse sequence as previously published. 6,30,31 […]
KI determination. KI values were determined as previously published for Langerin.6 Briefly, titration experiments were conducted at a concentration of 0.1 mM of reporter ligand 49 at five competitor concentrations [I]T (Table S5). […]

Data set [2] deals with T2, Langerin CRD (Homo sapiens, UniProt Q9UJ71).
T2 construct: Langerin carbohydrate recognition domains (CRDs) were expressed insolubly in; made in house; host or cells: E. coli BL21* (DE3)
Put plainly: 15N HSQC NMR titration, KD determination. The format is binding. The settings on record: 10% DMSO. How it is done: ppm. The acquisition time tacq was set to 2.0 s and the DPFGSE pulse sequence was utilized for solvent suppression.33 Receptor resonances were suppressed using a T1,rho filter at a relaxation time τ of 35 ms.
Epitope mapping. The binding epitope for 43 was determined at a concentration of 500 µM. For each spectrum 512 scans were recorded. The relaxation delay d 1 was set to 6 s and spectra were recorded at 5 different saturation time s tsat varying from 0.25 to 6.00 s. Equation 1 served to derive the STD effect STD for each analyzed resonance from the corresponding on - and off-resonance spectra.34 I0 represents the integral of a resonance in the off-resonance spectrum and Isat represents the integral of a resonance in the on-resonance spectrum.
The apparent saturation rate k sat and the maximal STD effect STDmax were derived from Equation 2 in a two-parameter fit.35 Standard errors were derived directly from the fitting procedures. These parameters were used to calculate the initial slope of the STD build-up curves STD’0 via Equation 3. STD’0 values were normalized and mapped on the corresponding ligand structure. Only resonances for which at least part of a multiplet was isolated were considered for the epitope mapping.
STD = STDmax(1 − eksattsat)
General remarks. 15N HSQC NMR experiments were conducted on an Ascend 700 MHz spectrometer (Bruker).36 Spectra were processed in NMRPipe.37 Data analysis was performed using CCPN Analysis, MatLab (MathWorks) and OriginPro.38 […]
KD determination. KD values were determined in titration experiments at six ligand concentrations [L]T. Samples were prepared via serial dilution. Chemical shift perturbations CSPs for Langerin CRD resonances in the fast or fast-to-intermediate exchange regime observed upon titration with ligand were calculated as previously described via Equation 4.40
A standard deviation σ of 0.02 ppm was previously determined for the measurement of chemical shifts in 15N HSQC NMR experiments with the Langerin CRD. […]

The test system of another data set is Langerin+ Raji cells. Put plainly: Liposome binding assay, flow cytometry. The format is cell-based. The method, then: as §1, §2, §3, §4
(§9) Flow cytometry data was processed using FlowJo (BD Bioscience). Mean fluorescence

Data set [3] has as its system murine Dectin-1-expressing Raji cells. Put plainly: Liposome binding assay, flow cytometry. The format is cell-based. How it is done:
as §1, §2, §3, §4, §9

In data set [4] the test system is murine Langerin-expressing Raji cells. Put plainly: Liposome binding assay, flow cytometry. The format is cell-based. How it is done:
as §1, §2, §3, §4, §9

Data set [5] deals with T1, Langerin ECD. The experiment in a line: 19F R2-filtered NMR screening of the mannoside library (reporter displacement, single competitor concentration). The format is binding. The method, then:
as §5, §6, §7, §8
CaCl2 at pH 7.0 and 25°C. TFA served as an internal reference at a concentration of 50 μM. Apparent transverse relaxation rates R 2,obs for the reporter ligand were determined using the CPMG pulse sequence as previously published. 6,30,31 Screening of mannoside library . Estimated affinities KI,est were determined in competitive binding experiments at 0.1 mM of reporter ligand 49 at 0.1 mM using the Langerin ECD at a single competitor concentration as previously described.6 Here, receptor concentrations [P]T values were directly calculated from R2,max, the data point at 0.1 mM 49 in absence of competitor. Subsequently, KI values were estimated in a one parameter fit. The screening was conducted in presence of 0% to 10% DMSO at mannoside concentrations between 0.1 and 10 mM. […]

In data set [6] the target is T2, Langerin CRD. On the set-up: method as in earlier work. Particulars: previously published values; ref 6 (SI); cited from earlier work.
For the next data set, the target named is T3, DC-SIGN ECD (Homo sapiens, UniProt Q9NNX6).
T3 construct: DC-SIGN extracellular domain (ECD); made in house; host or cells: E. coli BL21(DE3), pET30b; gene from GenScript
T3 sequence (Q9NNX6 59-404 limits assumed): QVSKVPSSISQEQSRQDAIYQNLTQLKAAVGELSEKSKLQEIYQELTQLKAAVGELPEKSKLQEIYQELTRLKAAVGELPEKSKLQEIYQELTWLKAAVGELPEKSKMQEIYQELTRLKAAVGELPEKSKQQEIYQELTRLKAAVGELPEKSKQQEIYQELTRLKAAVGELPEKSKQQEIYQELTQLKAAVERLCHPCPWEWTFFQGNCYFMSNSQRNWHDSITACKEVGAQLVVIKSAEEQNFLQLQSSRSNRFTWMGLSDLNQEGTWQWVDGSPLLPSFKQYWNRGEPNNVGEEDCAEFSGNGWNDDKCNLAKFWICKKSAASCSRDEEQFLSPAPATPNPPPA
Put plainly: 19F NMR reporter displacement assay transferred to DC-SIGN ECD. The format is binding. Particulars: 0.1 mM reporter 49; for 48 estimated, receptor precipitation above 1 mM.

Setting [7] is: calculated utilizing the KI value determined for 46.
[8] abbreviates: calculated utilizing the KI value determined for 45.

Read-outs that look alike come from different tables or passages of the source.

T1 sequence (Q9UJ71 65-328 limits assumed): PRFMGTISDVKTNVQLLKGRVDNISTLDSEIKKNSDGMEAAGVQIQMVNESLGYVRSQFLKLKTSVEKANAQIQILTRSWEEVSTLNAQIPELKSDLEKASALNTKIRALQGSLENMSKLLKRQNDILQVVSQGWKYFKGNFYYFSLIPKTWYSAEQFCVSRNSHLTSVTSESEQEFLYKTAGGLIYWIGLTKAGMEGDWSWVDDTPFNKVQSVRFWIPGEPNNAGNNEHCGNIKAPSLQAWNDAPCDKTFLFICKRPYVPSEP
T2 sequence (Q9UJ71 202-320 limits assumed): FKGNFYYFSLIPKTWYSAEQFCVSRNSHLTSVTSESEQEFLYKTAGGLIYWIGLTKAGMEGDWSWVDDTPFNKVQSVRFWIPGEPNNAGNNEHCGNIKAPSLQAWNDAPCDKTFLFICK
Experimental for DC-SIGN ECD: KI values were determined as previously described for Langerin and the DC-SIGN CRD.6 Briefly, competitive binding experiments were conducted with 49 at a concentration of 0.1 mM and varying competitor concentrations [I]T. KI and [P]T values were derived from Equation 8 in a two-parameter fit.
𝜃 = 𝑐𝑜𝑠−1 ( ) ,𝑎 = 𝐾𝐷 + 𝐾𝐼 + [𝐿]𝑇 + [𝐼]𝑇 − [𝑃]𝑇
𝑏 = ([𝐼]𝑇 − [𝑃]𝑇)𝐾𝐷 + ([𝐿]𝑇 − [𝑃]𝑇)𝐾𝐷 + 𝐾𝐼𝐾𝐷, 𝑐 = −𝐾𝐼𝐾𝐷[𝑃]𝑇
For KD determination from 19F NMR CSPs, samples and measurements were set up as described for 19F R2-filtered NMR but at a single relaxation time T = 0 s. CSP 19F, T were calculated from the chemical shift of the 19F resonance of 48 in the presence of protein δT at increasing ligand concentrations and the chemical shift in absence of protein δf at a concentration of 1 mM via Equation 4.
The KD value was calculated from CSP19F, T values in a two -parameter fit using Equation 10, using a fixed protein concentration [P] T and a CSP19F of 0 ppm as a lower bound. CSP19F,b corresponds to the top asymptote and was kept variable. As in Equation 9, pb represents the fraction of bound protein.

With `C[C@H](O)[C@@H](O)[C@@H](O)[C@H](O)C=O` [Fuc, fucose, reference compound], the “effect of soluble compound on binding of 48 liposomes” value with DC-SIGN+ Raji cells (soluble Fuc, liposomes with 1.26 mol % 48, p > 0.05, n = 4) is listed as “did not increase”.
In the case of `COC1OC(CO)C(O)C(O)C1O` (stereo not shown) [compound 46, reference compound], at Langerin ECD [1] (setting [7]), the Relative potency is reported as 1.0. This compound returned a Ki at Langerin ECD [1] of 13000 ± 3000 µM. The Kd at Langerin CRD [2] came to 7000 ± 2000 µM.
As for `NCCS(=O)(=O)NC[C@H]1O[C@H](Oc2ccc(-c3ccc(C(=O)O)cc3)cc2C(F)(F)F)[C@@H](O)[C@@H](O)[C@@H]1O` [compound 42], the “binding of homomultivalent liposomes decorated with 2 mol% 42” value in the data set with Langerin+ Raji cells is listed as “negligible”; in data set [3], “negligible”; in data set [4], “negligible”; with DC-SIGN+ Raji cells (2 mol%, formulations not long-term stable, unspecific binding), “binding preference towards DC-SIGN”.
For the compound `CC(=O)NCCS(=O)(=O)NC[C@H]1O[C@H](Oc2ccc(-c3ccc(C(=O)O)cc3)cc2C(F)(F)F)[C@@H](O)[C@@H](O)[C@@H]1O` [compound 43], the Relative potency at Langerin ECD [1] (setting [8]) is reported as 40. Besides, the Ki at Langerin ECD [1] worked out at 250 ± 70 µM. Besides, at Langerin ECD [1] (from KI), the “affinity increase over Man reference 45” value worked out at 40 fold. This compound also had a Kd on Langerin CRD [2] of 460 ± 90 µM.
Turning to `O=C(O)c1ccc(-c2ccc(O[C@H]3O[C@H](CO)[C@@H](O)[C@H](O)[C@@H]3O)c(C(F)(F)F)c2)cc1` [compound 9], the Relative potency is on record as 44 on Langerin ECD [1] (setting [8]) and 57 at Langerin ECD [1] (setting [7]). Besides, the Ki at Langerin ECD [1] amounted to 230 ± 30 µM. In addition, the potency estimated from few doses at Langerin ECD [5] (estimated at a single competitor concentration, 0.1 mM reporter ligand 49, 0% to 10% DMSO, read-out: KI,est) was 200 µM. Besides, the “affinity increase over reference molecule 1” value at Langerin ECD [5] (from KI,est) stood at 45 fold. Besides, at Langerin CRD [2], the affinity, expressed as Kd, was 500 ± 200 µM.
With `OC[C@H]1OC(O)[C@@H](O)[C@@H](O)[C@@H]1O` (stereo partly shown) [Man, mannose, reference compound], the Kd at Langerin CRD [6] is 5800 ± 300 µM. Besides, the Relative potency on Langerin ECD [1] (setting [8]) is given as 2.2. Also, the Ki at DC-SIGN ECD was 2400 ± 800 µM.
`CC(=O)NCCO[C@H]1O[C@H](CO)[C@@H](O)[C@H](O)[C@@H]1O` [compound 45, reference compound]: on Langerin ECD [1] (setting [8]), the Relative potency is 1.0.

Broadly, the Ki is a measure of affinity in units of concentration, obtained from inhibition or displacement. A word on the Kd: it is the free concentration of one partner at which half of the binding sites on the other are occupied at equilibrium, for simple one-to-one binding.
